Results from publication PMC6264549, “Synthesis and Biological Evaluation of 3-Substituted-indolin-2-one Derivatives Containing Chloropyrrole Moieties” (Molecules, 2011).

Experiments:
oral epithelial (KB) = assay: MTT cell growth inhibition assay, KB; format: cell-based; details: Homo sapiens, 48 h, KB cells, two days
Experimental: (§1) The antitumor activities of 14a-r were evaluated in vitro on four tumor cell lines, including non-small cell lung cancer (A549), oral epithelial (KB), melanoma (K111) and large cell lung cancer cell lines (NCI-H460) by the MTT assay, and the results are summarized in Table 1.
(§2) Non-small cell lung cancer (A549), oral epithelial (KB), large cell lung cancer (NCI-H460) and melanoma cell lines (K111) were cultured in Dulbecco’s modified Eagle medium (GIBCO) containing 10% (v/v) inactivated newborn calf serum (Boren Bio-Pharmaceutical Co., Ltd.: Guangzhou, China), […] L-glutamine (SANGON), […] penicillin, 100 µg/mL streptomycin. Cells were grown in a 5% CO2 incubator at 37 °C.
(§3) The antitumor activities were determined by the MTT assay. Cells (2 × 10^3 cells/well) were seeded in 96-well plates. After incubation overnight, each compound, which was dissolved in dimethylsulfoxide (DMSO) and diluted with phosphate buffer solution (PBS), was added to each well and the cells were cultured for another two days at 37 °C. 20 μL (5 mg/mL) MTT solution was added to per well and the culture continued for another 3–4 h. The medium was removed and 100 μL DMSO was added to dissolve formazan crystals. Absorbance was measured at 492 nm using an ELISA reader (Thermo). The antitumor activities were expressed as IC50.

hERG potassium currents = hERG potassium currents (Homo sapiens, UniProt Q12809); assay: Inhibition of hERG potassium currents in HEK239 cells (cardiotoxicity)
VEGFR2 tyrosine kinase = VEGFR2 tyrosine kinase (Homo sapiens, UniProt P35968); assay: VEGFR2 inhibition assay (ELISA); format: biochemical; details: 5.0 µM ATP, Poly (Glu, Tyr)4:1 substrate, read-out: IC50 ± SD VEGFR2
Experimental: Seven compounds in the 14a–r series with low IC50 values on the tumor cell lines were evaluated for their inhibition of VEGFR2 using an enzyme-linked immunosorbent assay (ELISA), and the data are summarized in Table 2.
The VEGFR2 inhibition assay was performed by enzyme-linked immunosorbent assay (ELISA) in 96-well plates pre-coated with 2.5 µg/well Poly (Glu, Tyr)4:1 as a substrate. Each well was treated with 90 µL of 5.0 µM ATP (Amresco) solution and 10 µL of one of the seven compounds at varying concentrations, which were diluted in reaction buffer (50 mM HEPES pH 7.4, 20 mM MgCl2, 0.1 mM Na3VO4, 1 mM DTT). […] The reaction was initiated by adding 1 µL/well of VEGFR2 tyrosine kinase. After incubation for 1 h at 37 °C, the plates were washed three times with phosphate buffered saline containing 0.1% Tween-20 (T-PBS). Next, anti-phosphotyrosine (PY99; 1:1,000 dilution, 100 μL/well) antibody was added. After 1 h incubation at room temperature, the plates were washed three times, and goat anti-mouse IgG horseradish peroxidase (100 μL/well of 1:2,000 dilution) diluted in T-PBS was added. The plates were reincubated at room temperature for 1 h, and washed as before. Finally, color development solution (0.03% H2O2 and 2 mg/mL o-phenylenediamine in 0.1 M citrate buffer, pH 5.5, 100 µL/well) was added and the plates were incubated at room temperature until color emerged. The reaction was terminated by the addition of 2 M H2SO4 (50 µL/well), and A492 was measured using a tunable wavelength microplate reader (Molecular Devices SPECTRAMAX190). The inhibition rate was calculated using the equation: [1 − (A492/A492 control)] × 100%.

melanoma (K111) = assay: MTT cell growth inhibition assay, K111; format: cell-based; details: 48 h, K111 cells, two days, read-out: IC50 ± SD K111
Experimental: as §1, §2, §3

[1] = system: non-small cell lung cancer (A549); assay: MTT cell growth inhibition assay, A549; format: cell-based; details: Homo sapiens, 48 h, A549 cells, two days, read-out: IC50 ± SD A549
Experimental: as §1, §2, §3

[2] = system: large cell lung cancer cell lines (NCI-H460); assay: MTT cell growth inhibition assay, NCI-H460; format: cell-based; details: Homo sapiens, 48 h, NCI-H460 cells, two days, read-out: IC50 ± SD NCI-H460
Experimental: as §1, §2, §3

[3] = sunitinib-treated patients, pivotal phase III metastatic renal cell carcinoma trial; cited from earlier work

hERG potassium currents, sequence (Q12809 whole entry): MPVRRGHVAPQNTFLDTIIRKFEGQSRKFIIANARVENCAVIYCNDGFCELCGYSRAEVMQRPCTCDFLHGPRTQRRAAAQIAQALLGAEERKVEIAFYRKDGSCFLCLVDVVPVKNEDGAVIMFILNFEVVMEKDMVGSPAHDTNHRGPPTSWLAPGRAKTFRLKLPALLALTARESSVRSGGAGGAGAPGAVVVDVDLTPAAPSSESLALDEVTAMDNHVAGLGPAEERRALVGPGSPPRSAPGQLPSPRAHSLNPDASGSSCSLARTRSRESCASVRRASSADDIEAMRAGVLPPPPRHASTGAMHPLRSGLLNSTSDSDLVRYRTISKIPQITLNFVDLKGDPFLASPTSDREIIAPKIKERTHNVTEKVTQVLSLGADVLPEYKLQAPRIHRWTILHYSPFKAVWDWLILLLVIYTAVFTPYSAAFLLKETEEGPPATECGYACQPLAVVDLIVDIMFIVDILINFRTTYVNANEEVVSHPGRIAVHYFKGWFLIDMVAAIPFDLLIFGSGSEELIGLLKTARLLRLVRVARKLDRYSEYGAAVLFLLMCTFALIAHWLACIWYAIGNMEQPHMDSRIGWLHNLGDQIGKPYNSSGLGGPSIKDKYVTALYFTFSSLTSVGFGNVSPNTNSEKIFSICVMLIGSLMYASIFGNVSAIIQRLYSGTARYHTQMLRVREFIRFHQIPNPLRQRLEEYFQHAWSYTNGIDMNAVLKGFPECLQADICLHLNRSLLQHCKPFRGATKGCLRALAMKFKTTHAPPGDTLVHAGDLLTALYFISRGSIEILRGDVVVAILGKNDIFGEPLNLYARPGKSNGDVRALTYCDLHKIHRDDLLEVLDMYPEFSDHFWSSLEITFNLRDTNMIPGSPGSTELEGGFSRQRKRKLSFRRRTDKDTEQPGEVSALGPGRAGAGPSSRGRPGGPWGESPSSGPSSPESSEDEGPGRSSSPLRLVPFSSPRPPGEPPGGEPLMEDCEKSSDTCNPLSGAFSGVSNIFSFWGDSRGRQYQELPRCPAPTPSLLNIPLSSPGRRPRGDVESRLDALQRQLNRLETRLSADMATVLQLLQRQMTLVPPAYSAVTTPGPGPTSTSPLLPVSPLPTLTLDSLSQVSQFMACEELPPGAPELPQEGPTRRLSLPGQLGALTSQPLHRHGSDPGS
VEGFR2 tyrosine kinase, sequence (P35968 20-1356): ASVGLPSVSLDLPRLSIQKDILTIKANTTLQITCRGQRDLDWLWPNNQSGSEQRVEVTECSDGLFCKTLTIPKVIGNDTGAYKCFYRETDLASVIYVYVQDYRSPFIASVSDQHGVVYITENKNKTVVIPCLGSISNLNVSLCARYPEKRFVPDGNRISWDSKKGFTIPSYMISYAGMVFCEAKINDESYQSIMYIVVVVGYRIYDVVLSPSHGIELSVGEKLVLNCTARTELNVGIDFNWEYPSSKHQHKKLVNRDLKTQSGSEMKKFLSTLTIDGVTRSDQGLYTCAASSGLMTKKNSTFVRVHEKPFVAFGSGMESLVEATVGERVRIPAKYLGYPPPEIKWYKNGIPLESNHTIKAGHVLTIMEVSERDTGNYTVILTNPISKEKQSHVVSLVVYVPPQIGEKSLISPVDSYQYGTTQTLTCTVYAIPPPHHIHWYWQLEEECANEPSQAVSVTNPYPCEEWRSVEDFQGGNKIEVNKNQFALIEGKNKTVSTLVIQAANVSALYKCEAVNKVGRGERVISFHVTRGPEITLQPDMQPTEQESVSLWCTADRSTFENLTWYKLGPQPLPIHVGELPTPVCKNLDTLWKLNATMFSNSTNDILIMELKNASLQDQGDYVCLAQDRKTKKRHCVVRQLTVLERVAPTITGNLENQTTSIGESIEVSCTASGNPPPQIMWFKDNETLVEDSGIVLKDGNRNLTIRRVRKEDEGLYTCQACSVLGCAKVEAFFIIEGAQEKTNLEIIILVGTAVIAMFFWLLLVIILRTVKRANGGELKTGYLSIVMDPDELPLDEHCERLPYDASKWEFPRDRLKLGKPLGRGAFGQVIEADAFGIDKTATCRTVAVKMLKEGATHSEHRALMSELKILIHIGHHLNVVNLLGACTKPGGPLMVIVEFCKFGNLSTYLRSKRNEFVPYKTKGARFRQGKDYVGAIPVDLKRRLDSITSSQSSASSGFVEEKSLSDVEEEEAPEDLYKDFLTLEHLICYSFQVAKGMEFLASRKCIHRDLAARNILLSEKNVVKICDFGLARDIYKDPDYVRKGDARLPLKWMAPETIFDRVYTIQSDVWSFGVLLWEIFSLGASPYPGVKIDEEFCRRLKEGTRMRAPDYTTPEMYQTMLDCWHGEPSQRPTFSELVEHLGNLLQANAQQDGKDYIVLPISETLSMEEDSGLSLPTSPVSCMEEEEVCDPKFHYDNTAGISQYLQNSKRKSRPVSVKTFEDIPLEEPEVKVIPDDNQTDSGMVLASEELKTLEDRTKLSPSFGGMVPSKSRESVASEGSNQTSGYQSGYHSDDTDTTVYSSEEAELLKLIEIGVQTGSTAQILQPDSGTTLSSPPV

IC50 (oral epithelial (KB)) [nM] | IC50 (VEGFR2 tyrosine kinase) [nM] | melting point [°C] | IC50 (melanoma (K111)) [nM] | IC50 [1] [nM] | IC50 [2] [µM] | SMILES | IC50 (hERG potassium currents) [nM] | patients who experienced a decline in LVEF to below normal [3] [%]
1250 ± 100 | 6.8 ± 0.8 | 245.6 to 246.9 | 1790 ± 120 | 1870 ± 260 | 32.1 ± 3.83 | CCN(CC)CCNC(=O)c1c(C)[nH]c(/C=C2\C(=O)Nc3ccc(F)cc32)c1Cl [Compound 14h, (Z)-4-Chloro-N-(2-(diethylamino)ethyl)-5-((5-fluoro-2-oxoindolin-3-ylidene)methyl)-2-methyl-1H-pyrrole-3-carboxamide] | 452 | 
2600 ± 180 |  |  | 3830 ± 430 | 2930 ± 250 | 4.79 ± 0.62 | CCN(CC)CCNC(=O)c1c(C)[nH]c(/C=C2\C(=O)Nc3ccc(F)cc32)c1C [Sunitinib, sunitinib, reference compound] |  | 21
